The results in this text go back to patent US20250270202A1, “SUBSTITUTED 4-AMINOISOINDOLINE COMPOUND, PREPARATION METHOD THEREFOR, PHARMACEUTICAL COMPOSITION THEREOF, AND USE THEREOF” (SHANGHAI INSTITUTE OF MATERIA MEDICA, CHINESE ACADEMY OF …, priority 2022, published 2025).

The test system of data set [1] is MM.1S cells. The data set is described as follows: Effect of the compound on MM.1S cell proliferation (MTS, 7 days). It counts as cell-based. The method in brief: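 MM.1S cells (20,000/well in RPMI 1640 with 10% FBS) were exposed to a 5-step compound dilution series (0.2% DMSO final) for 7 days at 37 °C, 5% CO2. MTS readout used OD490 minus OD690 after 3–4 h, and IC50 was fitted from three independent repeats.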

In data set [2] the test system is Mino cells. The data set is described as follows: Inhibition of cell proliferation of Mino cells (MTS, 3 days). It counts as cell-based. The method in brief:
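Mino cells in RPMI-1640 with 15% FBS were seeded at 8000 cells/well and treated with 5-fold compound dilutions (final DMSO 0.2%) for 3 days at 37° C. Viability was measured by MTS as OD490−OD690 after 3-4 h. IC50 was fitted from inhibition relative to DMSO and blank, in three repeat experiments.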

The subject of data set [3] is MV-4-11 cells. The data set is described as follows: Inhibition of MV-4-11 cell proliferation (MTS, 7 days). It is filed as cell-based. The gist of the method: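 Measured at 2,000 cells per well in IMDM with 10% FBS, five-fold compound dilutions, 0.2% DMSO final, 7 days at 37° C, 5% CO2. MTS added for 3-4 hours; signal as OD490-OD690. IC50 from three repeated experiments, each in triplicate.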

Data set [4] in a line: Mouse pharmacokinetic experiment, oral gavage. It counts as in vivo. As to conditions: ICR mice, female, oral gavage 20 mg/kg, plasma. The protocol:
Mouse Pharmacokinetic Experimental Scheme ICR mice, female, 18-22 g, randomly divided into groups with 4 mice per group. The test compounds were administered by oral gavage at a dose volume of 10 mL/kg. The oral solution was prepared using DMSO/PEG-400/water (5:30:65, v/v/v). Mice were fasted for 12 hours prior to the experiment with free access to water. After drug administration, they were allowed to eat uniformly at 2 hours post-dose. The test compounds (20 mg/kg) were orally administered to 4 mice. Blood samples (50 μL) were collected from the orbital vein at the following time points: 5 min, 15 min, 30 min, 1 h, 2 h, 4 h, 6 h, and 24 h. The blood was centrifuged at 12,000 rpm for 2 minutes to separate plasma, which was then stored at −20° C. for blood concentration measurement.

Setting [5] is: Homo sapiens, MM1.S, 168 h, 7 days, MTS, Table 1, read-out: MM.1S Cells Inhibition Activity IC50.
[6] abbreviates: Homo sapiens, MINO, 72 h, 3 days, MTS, Table 2, read-out: Mino Cells Inhibition Activity IC50.
[7] abbreviates: Homo sapiens, MV4-11, 168 h, 7 days, MTS, Table 3, read-out: MV-4-11 Cells Inhibition Activity IC50.
Setting [8] is: 7 days, MTS, Table 1, read-out: MM.1S Cells Inhibition Activity IC50.
The mark [9] stands for this setting: 3 days, MTS, Table 2, read-out: Mino Cells Inhibition Activity IC50.
Where [10] appears, read: 7 days, MTS, Table 3, read-out: MV-4-11 Cells Inhibition Activity IC50.
[11] abbreviates: Homo sapiens, MM1.S, Table 4, read-out: Inhibitory Activity of Compounds on Cell Proliferation MM.1S IC50.
Where [12] appears, read: Homo sapiens, MINO, Table 4, read-out: Inhibitory Activity of Compounds on Cell Proliferation Mino IC50.
Setting [13] is: Homo sapiens, MV4-11, Table 4, values in nM, read-out: Inhibitory Activity of Compounds on Cell Proliferation MV-4-11 IC50.
Setting [14] is: Homo sapiens, MV4-11, Table 4, values in μM, read-out: Inhibitory Activity of Compounds on Cell Proliferation MV-4-11 IC50.
Where [15] appears, read: Homo sapiens, MV4-11, positive compounds, read-out: IC50 in MV-4-11 acute leukemia cells.

Read-outs that look alike come from different tables or passages of the source.

Take `O=C1CCC(N2C(=O)c3cccc(NCc4cnc(-c5ccccc5)o4)c3C2=O)C(=O)N1` (stereo not shown) [Example 22]: the values for the IC50 in data set [1] (setting [5]), in data set [2] (setting [6]) and in data set [3] (setting [7]) were less than 0.015 µM, less than 0.06 µM and less than 1000 nM, respectively. Moreover, the AUC(0-t) (as a rule, the area under the concentration-time curve up to a stated or last time point) in data set [4] is greater than 10 µg·h/mL. Besides, the maximum concentration (Cmax) (usually the peak of the concentration-time curve) in data set [4] is greater than 2 µg/mL.
Turning to `CN1CCN(Cc2ncc(CNc3cccc4c3C(=O)N(C3CCC(=O)NC3=O)C4=O)o2)CC1` (stereo not shown) [Example 91], the results for the IC50 in data set [1] (setting [5]), in data set [2] (setting [6]) and in data set [3] (setting [7]) were greater than 0.15 µM, greater than 0.12 µM and 1000 to 20000 nM, respectively.
With `O=C1CCC(N2C(=O)c3cccc(NCc4cnc(-c5ccccc5Cl)o4)c3C2=O)C(=O)N1` (stereo not shown) [Example 92, 4-(((2-(2-Chlorophenyl)oxazol-5-yl)methyl)amino)-2-(2,6-Dioxopiperidine-3-yl)isoindoline-1,3-dione], the IC50 was less than 0.015 µM in data set [1] (setting [8]), greater than 0.12 µM in data set [2] (setting [9]) and less than 1000 nM in data set [3] (setting [10]).
Taken in the same sequence, the figures for `O=C1CCC(N2C(=O)c3cccc(NCc4cnc(-c5ccc(F)cc5)o4)c3C2=O)C(=O)N1` (stereo not shown) [Example 93, 2-(2,6-Dioxopiperidine-3-yl)-4-(((2-(4-Fluorophenyl)oxazol-5-yl)methyl)amino)isoindoline-1,3-dione] were less than 0.015 µM, less than 0.06 µM and less than 1000 nM.
`O=C1CCC(N2C(=O)c3cccc(NCc4ncc(-c5ccccc5F)o4)c3C2=O)C(=O)N1` (stereo not shown) [Example 95, 2-(2,6-Dioxopiperidine-3-yl)-4-(((5-(2-Fluorophenyl)oxazol-2-yl)methyl)amino)isoindoline-1,3-dione]: the IC50 in data set [1] (setting [5]) is 0.03 to 0.15 µM; in data set [2] (setting [6]), greater than 0.12 µM; in data set [3] (setting [7]), greater than 20000 nM.
With `O=C1CCC(N2C(=O)c3cccc(NCc4cnc(-c5cccc(OC6CC6)c5)o4)c3C2=O)C(=O)N1` (stereo not shown) [Example 96, 4-(((2-(Cyclopropoxyphenyl)oxazol-5-yl)methyl)amino)-2-(2,6-Dioxopiperidine-3-yl)isoindoline-1,3-dione], the IC50 in data set [1] (setting [5]) is less than 0.015 µM; in data set [2] (setting [6]), greater than 0.12 µM; in data set [3] (setting [7]), less than 1000 nM.
Consider `O=C1CCC(N2C(=O)c3cccc(NCc4cnc(-c5ccccc5OC5CC5)o4)c3C2=O)C(=O)N1` (stereo not shown) [Example 97, 4-(((2-(2-Cyclopropoxyphenyl)oxazol-5-yl)methyl)amino)-2-(2,6-Dioxopiperidine-3-yl)isoindoline-1,3-dione], for which the IC50 in data set [1] (setting [5]) is less than 0.015 µM; in data set [2] (setting [6]) it was greater than 0.12 µM; in data set [3] (setting [7]), 1000 to 20000 nM.
The like results for `O=C1CCC(N2C(=O)c3cccc(NCc4nnc(-c5ccccc5)o4)c3C2=O)C(=O)N1` (stereo not shown) [Example 98, 2-(2,6-Dioxopiperidine-3-yl)-4-(((5-Phenyl-1,3,4-oxadiazol-2-yl)methyl)amino)isoindoline-1,3-dione] were, in that order, 0.015 to 0.03 µM, greater than 0.12 µM and 1000 to 20000 nM.
The like results for `O=C1CCC(N2C(=O)c3cccc(NCc4nnc(-c5ccccc5)s4)c3C2=O)C(=O)N1` (stereo not shown) [Example 99, 2-(2,6-Dioxopiperidine-3-yl)-4-(((5-Phenyl-1,3,4-thiadiazol-2-yl)methyl)amino)isoindoline-1,3-dione] were, in that order, 0.03 to 0.15 µM, greater than 0.12 µM and 1000 to 20000 nM.
The like results for `O=C1CCC(N2C(=O)c3cccc(NCc4cnc(-c5cccc(OC6COC6)c5)o4)c3C2=O)C(=O)N1` (stereo not shown) [Example 100] were, in that order, less than 0.015 µM, greater than 0.12 µM and 1000 to 20000 nM.
In the case of `O=C1CCC(N2C(=O)c3cccc(NCc4cnc(-c5ccc(OC6CC6)cc5)s4)c3C2=O)C(=O)N1` (stereo not shown) [Example 103, 4-(((2-(4-Cyclopropoxyphenyl)thiazol-5-yl)methyl)amino)-2-(2,6-Dioxopiperidine-3-yl)isoindoline-1,3-dione], the IC50 is less than 0.015 µM in data set [1] (setting [5]), greater than 0.12 µM in data set [2] (setting [6]) and 1000 to 20000 nM in data set [3] (setting [7]).
Consider `COCCOc1ccc(-c2ncc(CNc3cccc4c3C(=O)N(C3CCC(=O)NC3=O)C4=O)s2)cc1` (stereo not shown) [Example 104], for which the IC50 in data set [1] (setting [5]) was 0.015 to 0.03 µM; in data set [2] (setting [6]), greater than 0.12 µM; in data set [3] (setting [7]), less than 1000 nM.
As for `O=C1CCC(N2C(=O)c3cccc(NCc4cnc([C@H]5CC[C@@H](Cc6ccc(F)cc6)CC5)o4)c3C2=O)C(=O)N1` (stereo partly drawn) [Example 105, 2-(2,6-Dioxopiperidine-3-yl)-4-(((2-((1S,4S)-4-(4-Fluorobenzyl)cyclohexyl)oxazol-5-yl)methyl)amino)isoindoline-1,3-dione], the IC50 in data set [1] (setting [5]) was greater than 0.15 µM; in data set [2] (setting [6]) it was greater than 0.12 µM; in data set [3] (setting [7]), 1000 to 20000 nM.
`O=C1CCC(N2C(=O)c3cccc(NCc4cnc([C@H]5CC[C@H](Cc6ccc(F)cc6)CC5)o4)c3C2=O)C(=O)N1` (stereo partly drawn) [Example 106, 2-(2,6-Dioxopiperidine-3-yl)-4-(((2-((1R,4R)-4-(4-Fluorobenzyl)cyclohexyl)oxazol-5-yl)methyl)amino)isoindoline-1,3-dione]: the IC50 in data set [1] (setting [5]) was 0.03 to 0.15 µM; in data set [2] (setting [6]) it was greater than 0.12 µM; in data set [3] (setting [7]), less than 1000 nM.
In the case of `CC(C)(C)C(=O)N1CCC(c2ncc(CNc3cccc4c3CN(C3CCC(=O)NC3=O)C4=O)o2)CC1` (stereo not shown) [Example Ctrl-1, 3-(1-oxo-4-(((2-(1-pivaloylpiperidin-4-yl)oxazol-5-yl)methyl)amino)isoindolin-2-yl)piperidine-2,6-dione, reference compound], the results for the IC50 in data set [1] (setting [11]), in data set [2] (setting [12]) and in data set [3] (setting [13]) were 0.419 µM, greater than 20 µM and 14400 nM, respectively.
For `O=CN(Cc1cnc(-c2ccc(Cl)cc2)o1)c1cccc2c1C(=O)N(C1CCC(=O)NC1=O)C2=O` (stereo not shown) [Example Ctrl-2, N-((2-(4-chlorophenyl)oxazol-5-yl)methyl)-N-(2-(2,6-dioxopiperidin-3-yl)-1,3-dioxoisoindolin-4-yl) formamide, reference compound], the IC50 in data set [1] (setting [11]) was greater than 0.03 µM; in data set [2] (setting [12]), greater than 0.12 µM; in data set [3] (setting [14]) it was 1000 to 20000 nM.
With `CN(Cc1cnc(-c2ccc(Cl)cc2)o1)c1cccc2c1C(=O)N(C1CCC(=O)NC1=O)C2=O` (stereo not shown) [Example Ctrl-3, 4-(((2-(4-chlorophenyl)oxazol-5-yl)methyl)(methyl)amino)-2-(2,6-dioxopiperidin-3-yl)isoindoline-1,3-dione, reference compound], the IC50 in data set [1] (setting [11]) was greater than 0.03 µM; in data set [2] (setting [12]) it was greater than 0.12 µM; in data set [3] (setting [14]), 1000 to 20000 nM.
Consider `O=C1CCC(N2Cc3c(NCc4cn(-c5ccc(Cl)cc5)nn4)cccc3C2=O)C(=O)N1` (stereo not shown) [Example Ctrl-4, reference compound], for which the figures for the IC50 in data set [1] (setting [11]), in data set [2] (setting [12]) and in data set [3] (setting [13]) were greater than 0.015 µM, greater than 5 µM and greater than 20000 nM, respectively.
`Nc1cccc2c1CN(C1CCC(=O)NC1=O)C2=O` (stereo not shown) [Lenalidomide, reference compound]: the IC50 was 0.03 to 0.15 µM in data set [1] (setting [5]), greater than 0.12 µM in data set [2] (setting [6]), greater than 20000 nM in data set [3] (setting [7]) and greater than 20000 nM in data set [3] (setting [15]).
On to `Nc1cccc2c1C(=O)N(C1CCC(=O)NC1=O)C2=O` (stereo not shown) [Pomalidomide, reference compound], for which the IC50 in data set [1] (setting [5]) was 0.03 to 0.15 µM; in data set [2] (setting [6]) it was greater than 0.12 µM; in data set [3] (setting [7]), greater than 20000 nM; in data set [3] (setting [15]) it was greater than 20000 nM.
On to `O=C1CCC(N2Cc3c(NCc4cnc(-c5ccc(OC(F)(F)F)cc5)o4)cccc3C2=O)C(=O)N1` (stereo not shown) [Prior Art Disclosed Compound-1, reference compound], for which the IC50 is greater than 0.02 µM in data set [1] (setting [11]), greater than 4.8 µM in data set [2] (setting [12]) and greater than 20000 nM in data set [3] (setting [13]).
For the compound `O=C1CCC(N2Cc3c(CCc4cnc(-c5ccc(OC(F)(F)F)cc5)o4)cccc3C2=O)C(=O)N1` (stereo not shown) [Prior Art Disclosed Compound-2, reference compound], the IC50 in data set [1] (setting [11]) is 0.073 µM; in data set [2] (setting [12]) it was 0.8 µM; in data set [3] (setting [13]), greater than 20000 nM.
In the case of `O=C1CCC(N2C(=O)c3cccc(OCc4cn(-c5ccc(OC(F)(F)F)cc5)nn4)c3C2=O)C(=O)N1` (stereo not shown) [Prior Art Disclosed Compound-3, reference compound], the IC50 was greater than 20 µM in data set [1] (setting [11]), 0.68 µM in data set [2] (setting [12]) and greater than 20000 nM in data set [3] (setting [13]).
With `O=C1CCC(N2Cc3c(OCC4CCN(c5ccc(OC(F)(F)F)cc5)CC4)cccc3C2=O)C(=O)N1` (stereo not shown) [Prior Art Disclosed Compound-4, reference compound], the results for the IC50 in data set [1] (setting [11]), in data set [2] (setting [12]) and in data set [3] (setting [13]) were greater than 0.041 µM, 7.5 µM and greater than 10000 nM, respectively.
